Test results from patent publication US6500849B1, “1-alkyl-, 1-alkenyl-, and 1-alkynylaryl-2-amino 1,3-propanediols and related compounds” (Aventis Pharmaceuticals Inc., priority 1990, dated 2002).

How the values were obtained:
Bact. vulgatus = assay: Anerobic antibacterial assay (agar dilution, Wilkins-Chalgren agar); assay type: cell-based; conditions: Bact. vulgatus 1446; anaerobic; 48 hours at 37° C.
Klebsiella spp. = assay: Aerobic antibacterial assay (agar dilution, Mueller-Hinton agar); conditions: aerobic, 24 hours at 37° C.
Clost. tetani = assay: Anerobic antibacterial assay (agar dilution, Wilkins-Chalgren agar); assay type: cell-based; conditions: Clost. tetani 19406; anaerobic; 48 hours at 37° C.
Protein kinase C = Protein kinase C assay (32P incorporation into Type III histone); assay type: biochemical, rat; conditions: rat brain protein kinase C; phosphatidylserine/diacylglycerol stimulated; read-out: Protein Kinase Inhibitory Activity IC50
Description: (see U. Kikkawa, et al., Biochemical and Biophysical Research Communications, 135, 636 (1986) and R. M. Bell, et al. “Methods in Enzymology, Hormone Action,” Part J, P.M. Conn, Ed., Academic Press, Inc., New York, N.Y. 1986, page 353). Protein kinase C enzyme extract was prepared from the brain of male Wistar rats weighing 180 to 200 g and purified by the method of U. Kikkawa, et al., ibid. 636. The purified extract was stored at −80° C., and aliquots were used in the protein kinase C assay performed by a modification of the method of R. M. Bell, et al., ibid. al 354. To perform the assay, duplicate aliquots of duplicate samples are employed. Basal or unstimulated protein kinase C, phosphatidylserine/diacylglycerol stimulated protein kinase C, and test samples are run in each assay. […] The assay tubes were allowed to warm to 25° C. and an 8 μl mixture of adenosine 5′-triphosphate (100 μM) and ^32P-adenosine triphosphate (1 to 2×10^5 counts per minute) was added to each tube for a final volume of 80 μl per tube. After 2 min, the reaction (the incorporation of phosphorous into Type III histone) was terminated by spotting the assay mixture on phosphocellulose paper. The spots are cut out of the paper and the radioactivity (counts per min) of each spot was determined in a scintillation counter.

[1] = tested on: female Swiss Webster mice; assay: Arachidonic acid-induced ear edema assay; assay type: in vivo; conditions: 1 mg/ear topical, arachidonic acid 4 mg/ear
Description: In the arachidonic acid-induced ear edema assay, the test compound was dissolved in 30/70 propylene glycol/ethanol and was applied to both ears of groups of 6 female Swiss Webster mice, which were housed together in a cage under standard conditions for 1 week prior to use with food and water ad lib, at a volume of 20 μl so that a total of 1.0 mg of test compound was delivered to each ear over the inner and outer surfaces. The same volume (20 μl) of vehicle was applied to each ear of a control group of mice. After 30 minutes, arachidonic acid was applied to the right ear of each mouse of each group in the amount of 4 mg/ear. Vehicle was applied to the left ear of each mouse of each group at a volume of 20 μl/ear. After an additional hour, the mice were sacrificed and a 4 mm plug was taken from each ear and weighed. The difference between the right and left ear plugs was determined for each animal. The antiinflammatory activity of the test compound is expressed as the mean percent change in the ear plug weight of the treated animals relative to the mean percent change in weights of control animals' ear. Antiinflammatory activity of representative compounds of the present invention as determined in this assay are presented below in Table 3.

Clost. perfringens = assay: microbe, parasite or virus in culture; assay type: cell-based; conditions: Clost. perfringens 194; anaerobic; 48 hours at 37° C.
E. cloacae = assay: Aerobic antibacterial assay (agar dilution, Mueller-Hinton agar); conditions: aerobic, 24 hours at 37° C.
[2] = tested on: female Swiss Webster mice; assay: TPA-induced ear edema assay; assay type: in vivo; conditions: 10 μg/ear topical, after about 5 hours
Description: In the TPA-induced ear edema assay, TPA (12-O-tetradecanoylphorbol-13-acetate) was dissolved in 30/70 propylene glycol/ethanol and was applied to the right ear of groups of 6 female Swiss Webster mice, which were housed together in a cage under standard conditions for 1 week prior to use with food and water ad lib, at a volume of 20 μl so that a total of 10 μg of TPA is delivered to the inner and outer surfaces of the ear. The test compound was dissolved in the vehicle and was applied to the right ear (the inner and outer surface) at a volume of 20 μl so that a total of 10 μg of the compound was delivered to the ear. After about 5 hours, the animals were sacrificed, a 4 mm diameter plug was taken from each ear and weighed. The difference between the right and left ear plug weights for each animal was determined. The antiinflammatory activity of the test compound is expressed as the mean percent change in the ear plug weight of the treated animals compared to the mean percent change in the plug weight of the control animals.

Strept. faecium = assay: Aerobic antibacterial assay (agar dilution, Mueller-Hinton agar); conditions: Strept. faecium D; aerobic; 24 hours at 37° C.
Fusobact. varium = assay: Anerobic antibacterial assay (agar dilution, Wilkins-Chalgren agar); assay type: cell-based; conditions: anaerobic, 48 hours at 37° C.
Bact. ovatus = assay: as above; assay type: cell-based; conditions: Bact. ovatus 103; anaerobic; 48 hours at 37° C.
Bact. fragilis = assay: as above; assay type: cell-based; conditions: anaerobic, 48 hours at 37° C.
Bact. distasonis = assay: as above; assay type: cell-based; conditions: Bact. distasonis 1366; anaerobic; 48 hours at 37° C.
S. typhimurium = assay: Aerobic antibacterial assay (agar dilution, Mueller-Hinton agar); conditions: S. typhimurium; aerobic; 24 hours at 37° C.
Strept. pyogenes = assay: as above; conditions: aerobic, 24 hours at 37° C.
Peptostr. anaerobius = assay: Anerobic antibacterial assay (agar dilution, Wilkins-Chalgren agar); assay type: cell-based; conditions: Peptostr. anaerobius 932; anaerobic; 48 hours at 37° C.
E. coli = assay: Aerobic antibacterial assay (agar dilution, Mueller-Hinton agar); assay type: cell-based
Propionibact. acnes = assay: Anerobic antibacterial assay (agar dilution, Wilkins-Chalgren agar); assay type: cell-based; conditions: anaerobic, 48 hours at 37° C.
Bact. thetaiotaom. = assay: as above; assay type: cell-based; conditions: anaerobic, 48 hours at 37° C.
Staph. aureus = assay: Aerobic antibacterial assay (agar dilution, Mueller-Hinton agar); conditions: aerobic, 24 hours at 37° C.

In the case of CCCCCCCCCCCCC/C=C/[C@@H](O)[C@@H](N)CO [D-erythro-sphingosine, reference compound], the “Antibacterial activity (MIC, mg/l)” value (Bact. vulgatus) is reported as 25.0 mg/L, the “Antibacterial activity (MIC, mg/l)” value (Klebsiella spp.; Klebsiella spp. 1082E) is reported as 25.0 mg/L and the “Antibacterial activity (MIC, mg/l)” value (Klebsiella spp.; Klebsiella spp. 1522E) is reported as >100.0 mg/L. For the same molecule, the “Antibacterial activity (MIC, mg/l)” value (Clost. tetani) was 50.0 mg/L, the IC50 (Protein kinase C) was 6.7 µM and the “Antiinflammatory Activity Percent Decrease in Ear Plug Weight at 1 mg/ear” value [1] was “+9%”. For the same molecule, the “Antibacterial activity (MIC, mg/l)” value (Clost. perfringens) was 6.25 mg/L, the “Antibacterial activity (MIC, mg/l)” value (E. cloacae; E. cloacae 1321E) was 50.0 mg/L and the “Antibacterial activity (MIC, mg/l)” value (E. cloacae; E. cloacae P99) was >100.0 mg/L. For the same molecule, the “Antiinflammatory Activity Percent Decrease in Ear Plug Weight at 10 μg/ear” value [2] was 46%, the “Antibacterial activity (MIC, mg/l)” value (Strept. faecium) was 25.0 mg/L and the “Antibacterial activity (MIC, mg/l)” value (Fusobact. varium; Fusobact. varium 3085) was 25.0 mg/L. The “Antibacterial activity (MIC, mg/l)” value (Fusobact. varium; Fusobact. varium 5262) was 25.0 mg/L, the “Antibacterial activity (MIC, mg/l)” value (Bact. ovatus) was 12.5 mg/L and the “Antibacterial activity (MIC, mg/l)” value (Bact. fragilis; Bact. fragilis 312) was 25.0 mg/L. For the same molecule, the “Antibacterial activity (MIC, mg/l)” value (Bact. fragilis; Bact. fragilis 960) was 12.5 mg/L, the “Antibacterial activity (MIC, mg/l)” value (Bact. fragilis; Bact. fragilis 1313) was 25.0 mg/L and the “Antibacterial activity (MIC, mg/l)” value (Bact. fragilis; Bact. fragilis 17390) was 25.0 mg/L. For the same molecule, the “Antibacterial activity (MIC, mg/l)” value (Bact. fragilis; Bact. fragilis 18125) was 25.0 mg/L, the “Antibacterial activity (MIC, mg/l)” value (Bact. fragilis; Bact. fragilis 19016) was 25.0 mg/L and the “Antibacterial activity (MIC, mg/l)” value (Bact. distasonis) was 12.5 mg/L. For the same molecule, the “Antibacterial activity (MIC, mg/l)” value (S. typhimurium) was >100.0 mg/L, the “Antibacterial activity (MIC, mg/l)” value (Strept. pyogenes; Strept. pyogenes 77 A) was 25.0 mg/L and the “Antibacterial activity (MIC, mg/l)” value (Strept. pyogenes; Strept. pyogenes 308 A) was 12.5 mg/L. The “Antibacterial activity (MIC, mg/l)” value (Peptostr. anaerobius) was 12.5 mg/L, the “Antibacterial activity (MIC, mg/l)” value (E. coli; E. coli 1507E, 24 hours at 37° C.) was >100.0 mg/L and the “Antibacterial activity (MIC, mg/l)” value (E. coli; E. coli DC0, 24 hours at 37° C.) was >100.0 mg/L. For the same molecule, the “Antibacterial activity (MIC, mg/l)” value (E. coli; E. coli DC2, 24 hours at 37° C.) was 25.0 mg/L, the “Antibacterial activity (MIC, mg/l)” value (E. coli; E. coli O 78, 24 hours at 37° C.) was >100.0 mg/L and the “Antibacterial activity (MIC, mg/l)” value (E. coli; E. coli TEM, 24 hours at 37° C.) was >100.0 mg/L. For the same molecule, the “Antibacterial activity (MIC, mg/l)” value (Propionibact. acnes; Propionibact. acnes 6919) was 12.5 mg/L, the “Antibacterial activity (MIC, mg/l)” value (Propionibact. acnes; Propionibact. acnes 6922) was 12.5 mg/L and the “Antibacterial activity (MIC, mg/l)” value (Bact. thetaiotaom.; Bact. thetaiotaom. 123) was 25.0 mg/L. The “Antibacterial activity (MIC, mg/l)” value (Bact. thetaiotaom.; Bact. thetaiotaom. 1428) was 25.0 mg/L, the “Antibacterial activity (MIC, mg/l)” value (Bact. thetaiotaom.; Bact. thetaiotaom. 1445) was 25.0 mg/L and the “Antibacterial activity (MIC, mg/l)” value (Staph. aureus; Staph. aureus 285) was 25.0 mg/L. For the same molecule, the “Antibacterial activity (MIC, mg/l)” value (Staph. aureus; Staph. aureus 503) was 25.0 mg/L and the “Antibacterial activity (MIC, mg/l)” value (Staph. aureus; Staph. aureus SG511) was 25.0 mg/L.
